{"source": "ChEMBL document CHEMBL2434921", "about": "“New synthetic aliphatic sulfonamido-quaternary ammonium salts as anticancer chemotherapeutic agents” (2013)", "key": {"NCI-H23 [1]": {"test_system": "NCI-H23", "experiment": "Growth inhibition of human NCI-H23 cells after 48 hrs by SRB assay", "format": "functional", "details": "NCI-H23, 48 h"}, "HCT-15 [2]": {"test_system": "HCT-15", "experiment": "Growth inhibition of human HCT15 cells after 48 hrs by SRB assay", "format": "functional", "details": "HCT-15, 48 h"}, "[3]": {"molecular_target": "Rho-related GTP-binding protein RhoB (Homo sapiens) (UniProt P62745)", "sequence (P62745 whole entry)": "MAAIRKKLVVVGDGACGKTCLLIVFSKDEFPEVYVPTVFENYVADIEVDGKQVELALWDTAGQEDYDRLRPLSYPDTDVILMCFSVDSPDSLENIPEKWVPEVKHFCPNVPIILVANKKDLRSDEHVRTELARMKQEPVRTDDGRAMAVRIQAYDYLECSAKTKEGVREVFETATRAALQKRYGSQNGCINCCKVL", "experiment": "Transactivation of RhoB (unknown origin) transfected in human HeLa cells at 5 uM measured over 10 secs by dual luciferase reporter gene assay", "format": "cell-based"}, "NUGC-3 [4]": {"test_system": "NUGC-3", "experiment": "Growth inhibition of human NUGC3 cells after 48 hrs by SRB assay", "format": "functional", "details": "NUGC-3, 48 h"}, "ACHN [5]": {"test_system": "ACHN", "experiment": "Growth inhibition of human ACHN cells after 48 hrs by SRB assay", "format": "functional"}, "MDA-MB-231 [6]": {"test_system": "MDA-MB-231", "experiment": "Growth inhibition of human MDA-MB-231 cells after 48 hrs by SRB assay", "format": "functional", "details": "MDA-MB-231, 48 h"}, "PC-3 [7]": {"test_system": "PC-3", "experiment": "Growth inhibition of human PC3 cells after 48 hrs by SRB assay", "format": "functional", "details": "PC-3, 48 h"}, "PC-3 [8]": {"test_system": "PC-3", "experiment": "Growth of human PC3 cells at 10 uM after 48 hrs by SRB assay", "details": "PC-3, 48 h"}, "NUGC-3 [9]": {"test_system": "NUGC-3", "experiment": "Growth of human NUGC3 cells at 1 uM after 48 hrs by SRB assay", "details": "NUGC-3, 48 h"}, "ACHN [10]": {"test_system": "ACHN", "experiment": "Growth of human ACHN cells at 10 uM after 48 hrs by SRB assay"}, "HCT-15 [11]": {"test_system": "HCT-15", "experiment": "Growth of human HCT15 cells at 3 uM after 48 hrs by SRB assay", "details": "HCT-15, 48 h"}, "ACHN [12]": {"test_system": "ACHN", "experiment": "Growth of human ACHN cells at 0.1 uM after 48 hrs by SRB assay"}, "ACHN [13]": {"test_system": "ACHN", "experiment": "Growth of human ACHN cells at 0.3 uM after 48 hrs by SRB assay"}, "NUGC-3 [14]": {"test_system": "NUGC-3", "experiment": "Growth of human NUGC3 cells at 0.1 uM after 48 hrs by SRB assay", "details": "NUGC-3, 48 h"}, "NUGC-3 [15]": {"test_system": "NUGC-3", "experiment": "Growth of human NUGC3 cells at 0.3 uM after 48 hrs by SRB assay", "details": "NUGC-3, 48 h"}, "HCT-15 [16]": {"test_system": "HCT-15", "experiment": "Growth of human HCT15 cells at 0.3 uM after 48 hrs by SRB assay", "details": "HCT-15, 48 h"}, "NCI-H23 [17]": {"test_system": "NCI-H23", "experiment": "Growth of human NCI-H23 cells at 10 uM after 48 hrs by SRB assay", "details": "NCI-H23, 48 h"}, "NCI-H23 [18]": {"test_system": "NCI-H23", "experiment": "Growth of human NCI-H23 cells at 0.3 uM after 48 hrs by SRB assay", "details": "NCI-H23, 48 h"}, "MDA-MB-231 [19]": {"test_system": "MDA-MB-231", "experiment": "Growth of human MDA-MB-231 cells at 1 uM after 48 hrs by SRB assay", "details": "MDA-MB-231, 48 h"}, "MDA-MB-231 [20]": {"test_system": "MDA-MB-231", "experiment": "Growth of human MDA-MB-231 cells at 10 uM after 48 hrs by SRB assay", "details": "MDA-MB-231, 48 h"}, "MDA-MB-231 [21]": {"test_system": "MDA-MB-231", "experiment": "Growth of human MDA-MB-231 cells at 0.1 uM after 48 hrs by SRB assay", "details": "MDA-MB-231, 48 h"}, "MDA-MB-231 [22]": {"test_system": "MDA-MB-231", "experiment": "Growth of human MDA-MB-231 cells at 3 uM after 48 hrs by SRB assay; values are per cent of control", "details": "MDA-MB-231, 48 h"}, "PC-3 [23]": {"test_system": "PC-3", "experiment": "Growth inhibition of human PC3 cells at 1 uM after 48 hrs by SRB assay; values are per cent of control", "details": "PC-3, 48 h"}, "PC-3 [24]": {"test_system": "PC-3", "experiment": "Growth inhibition of human PC3 cells at 3 uM after 48 hrs by SRB assay; values are per cent of control", "details": "PC-3, 48 h"}, "ACHN [25]": {"test_system": "ACHN", "experiment": "Growth inhibition of human ACHN cells at 3 uM after 48 hrs by SRB assay; values are per cent of control"}, "ACHN [26]": {"test_system": "ACHN", "experiment": "Growth inhibition of human ACHN cells at 1 uM after 48 hrs by SRB assay; values are per cent of control"}, "NUGC-3 [27]": {"test_system": "NUGC-3", "experiment": "Growth inhibition of human NUGC3 cells at 3 uM after 48 hrs by SRB assay; values are per cent of control", "details": "NUGC-3, 48 h"}, "PC-3 [28]": {"test_system": "PC-3", "experiment": "Growth inhibition of human PC3 cells at 0.1 uM after 48 hrs by SRB assay; values are per cent of control", "details": "PC-3, 48 h"}, "PC-3 [29]": {"test_system": "PC-3", "experiment": "Growth inhibition of human PC3 cells at 0.3 uM after 48 hrs by SRB assay; values are per cent of control", "details": "PC-3, 48 h"}, "HCT-15 [30]": {"test_system": "HCT-15", "experiment": "Growth inhibition of human HCT15 cells at 1 uM after 48 hrs by SRB assay; values are per cent of control", "details": "HCT-15, 48 h"}, "NUGC-3 [31]": {"test_system": "NUGC-3", "experiment": "Growth inhibition of human NUGC3 cells at 10 uM after 48 hrs by SRB assay; values are per cent of control", "details": "NUGC-3, 48 h"}, "HCT-15 [32]": {"test_system": "HCT-15", "experiment": "Growth inhibition of human HCT15 cells at 10 uM after 48 hrs by SRB assay; values are per cent of control", "details": "HCT-15, 48 h"}, "NCI-H23 [33]": {"test_system": "NCI-H23", "experiment": "Growth inhibition of human NCI-H23 cells at 1 uM after 48 hrs by SRB assay; values are per cent of control", "details": "NCI-H23, 48 h"}, "NCI-H23 [34]": {"test_system": "NCI-H23", "experiment": "Growth inhibition of human NCI-H23 cells at 3 uM after 48 hrs by SRB assay; values are per cent of control", "details": "NCI-H23, 48 h"}, "HCT-15 [35]": {"test_system": "HCT-15", "experiment": "Growth inhibition of human HCT15 cells at 0.1 uM after 48 hrs by SRB assay; values are per cent of control", "details": "HCT-15, 48 h"}, "NCI-H23 [36]": {"test_system": "NCI-H23", "experiment": "Growth inhibition of human NCI-H23 cells at 0.1 uM after 48 hrs by SRB assay; values are per cent of control", "details": "NCI-H23, 48 h"}, "MDA-MB-231 [37]": {"test_system": "MDA-MB-231", "experiment": "Growth inhibition of human MDA-MB-231 cells at 0.3 uM after 48 hrs by SRB assay; values are per cent of control", "details": "MDA-MB-231, 48 h"}}, "note": "Calls of active or inactive are those of the source. The rule behind the calls is not given here."}
{"smiles": "CCCCCCCCCCCCCCCCS(=O)(=O)N(C)CC[N+](C)(C)CC", "values": [{"measurement": "GI50", "setting": "NCI-H23 [1]", "result": 1810, "unit": "nM"}, {"measurement": "GI50", "setting": "HCT-15 [2]", "result": 1260, "unit": "nM"}, {"measurement": "Activity", "setting": "[3]", "result": "Active"}, {"measurement": "GI50", "setting": "NUGC-3 [4]", "result": 360, "unit": "nM"}, {"measurement": "GI50", "setting": "ACHN [5]", "result": 1750, "unit": "nM"}, {"measurement": "GI50", "setting": "MDA-MB-231 [6]", "result": 540, "unit": "nM"}, {"measurement": "GI50", "setting": "PC-3 [7]", "result": 570, "unit": "nM"}, {"measurement": "growth, % of control at 10 µM", "setting": "PC-3 [8]", "result": -18.7, "unit": "%"}, {"measurement": "growth, % of control at 1 µM", "setting": "NUGC-3 [9]", "result": 30, "unit": "%"}, {"measurement": "growth, % of control at 10 µM", "setting": "ACHN [10]", "result": 21.5, "unit": "%"}, {"measurement": "growth, % of control at 3 µM", "setting": "HCT-15 [11]", "result": 35.2, "unit": "%"}, {"measurement": "growth, % of control at 0.1 µM", "setting": "ACHN [12]", "result": 96.2, "unit": "%"}, {"measurement": "growth, % of control at 0.3 µM", "setting": "ACHN [13]", "result": 93.9, "unit": "%"}, {"measurement": "growth, % of control at 0.1 µM", "setting": "NUGC-3 [14]", "result": 88, "unit": "%"}, {"measurement": "growth, % of control at 0.3 µM", "setting": "NUGC-3 [15]", "result": 81.3, "unit": "%"}, {"measurement": "growth, % of control at 0.3 µM", "setting": "HCT-15 [16]", "result": 98.4, "unit": "%"}, {"measurement": "growth, % of control at 10 µM", "setting": "NCI-H23 [17]", "result": 13.5, "unit": "%"}, {"measurement": "growth, % of control at 0.3 µM", "setting": "NCI-H23 [18]", "result": 78.3, "unit": "%"}, {"measurement": "growth, % of control at 1 µM", "setting": "MDA-MB-231 [19]", "result": 51.9, "unit": "%"}, {"measurement": "growth, % of control at 10 µM", "setting": "MDA-MB-231 [20]", "result": -3.8, "unit": "%"}, {"measurement": "growth, % of control at 0.1 µM", "setting": "MDA-MB-231 [21]", "result": 75.8, "unit": "%"}, {"measurement": "growth, % of control at 3 µM", "setting": "MDA-MB-231 [22]", "result": 36.5, "unit": "%"}, {"measurement": "growth, % of control at 1 µM", "setting": "PC-3 [23]", "result": 54.1, "unit": "%"}, {"measurement": "growth, % of control at 3 µM", "setting": "PC-3 [24]", "result": 14.2, "unit": "%"}, {"measurement": "growth, % of control at 3 µM", "setting": "ACHN [25]", "result": 52.7, "unit": "%"}, {"measurement": "growth, % of control at 1 µM", "setting": "ACHN [26]", "result": 77.8, "unit": "%"}, {"measurement": "growth, % of control at 3 µM", "setting": "NUGC-3 [27]", "result": 17.2, "unit": "%"}, {"measurement": "growth, % of control at 0.1 µM", "setting": "PC-3 [28]", "result": 91.4, "unit": "%"}, {"measurement": "growth, % of control at 0.3 µM", "setting": "PC-3 [29]", "result": 87.3, "unit": "%"}, {"measurement": "growth, % of control at 1 µM", "setting": "HCT-15 [30]", "result": 69.7, "unit": "%"}, {"measurement": "growth, % of control at 10 µM", "setting": "NUGC-3 [31]", "result": 4, "unit": "%"}, {"measurement": "growth, % of control at 10 µM", "setting": "HCT-15 [32]", "result": 26.7, "unit": "%"}, {"measurement": "growth, % of control at 1 µM", "setting": "NCI-H23 [33]", "result": 84, "unit": "%"}, {"measurement": "growth, % of control at 3 µM", "setting": "NCI-H23 [34]", "result": 61.6, "unit": "%"}, {"measurement": "growth, % of control at 0.1 µM", "setting": "HCT-15 [35]", "result": 101, "unit": "%"}, {"measurement": "growth, % of control at 0.1 µM", "setting": "NCI-H23 [36]", "result": 80.8, "unit": "%"}, {"measurement": "growth, % of control at 0.3 µM", "setting": "MDA-MB-231 [37]", "result": 77.8, "unit": "%"}]}
